Counter-ions that a name gives are not always drawn.

In the first data set the test system is primary forebrain neurons. In words: cells.
Conditions: not given
The method, then: Primary forebrain cell culture and maintenance. Forebrains of P0 Mt or Mt/Ai14 pups without olfactory bulbs and meninges were collected and placed in ice cold Ca^2+ and Mg^2+ free HBSS supplemented with 2 μg/ml gentamicin, 25 mM D-glucose, 1 mM pyruvate and 20 mM HEPES. Brain tissue was digested with 0.6 mg/ml papain at 37° C. for 20 min. Forebrains were washed with plating media [Neurobasal (Gibco), 5% FBS, 4 mM GlutaMAX (Gibco), 2 μg/ml gentamicin]. The tissue was gently triturated, allowed to settle and the supernatant was filtered through a 40 μm mesh-sized cell strainer. Cells were centrifuged at 420×g for 4 min and resuspended in plating media. 15,000 cells per well were plated with 2×10^8 viral particles/ml onto black Greiner μClear (Cat #781946) or Ultra-Low Base Aurora with evaporation barrier (Cat #ABE201201B) 384-well plates (80 μl/well) pre-coated with poly-D-lysine for the primary screen and rescreen, respectively. Plating and media changes were performed using an automated Biomek FX^P liquid handling workstation. Four hr after plating, 75% of the plating media was replaced by feeding media [Neurobasal-A (Gibco), 4 mM GlutaMAX (Gibco), 2 μg/ml gentamicin, 2% B27 (Gibco)]. At DIV4, 50% of the media was exchanged with fresh feeding media supplemented with 16 μM 5-Fluoro-2′-deoxyuridine (FUdR) to prevent glial cell over-growth. At DIV8 and DIV12, additional 50% media changes were made without FUdR. Cells were maintained at 37° C. and 5% CO2; plates were topped with Breathe-Easy adhesive membranes (Greiner plates) to minimize evaporation.
Compounds and compound transfer.
Imaging. Images were captured using a GE Incell 6000 system (60× objective, 0.95 NA, 16-bit images) equipped with environmental control (37° C., 5% CO2). Mt-GFP (green channel) was imaged by confocal imaging (3 slices, Δz=0.7 μm, aperture=1.0 AU, λexc=488 nm, λem=515-535 nm). Cyto-tdTomato (red channel) and MitoTracker Orange (red channel) were imaged using confocal mode (3 slices, Δz=0.7 μm, aperture=1.0 AU, λexc=561 nm, λem=569-641 nm, MitoTracker Orange) or with widefield mode (Cyto-tdTomato). TMRM imaged for the co-localization experiments with Mt-GFP was imaged using the confocal mode (3 slices, […] aperture=1.0, λexc=488, λem=569-641 nm). For the live-dead assay, primary neurons were imaged with a 20× (widefield mode, NA 0.45) objective using λexc=561 nm and λem=569-641 nm for the propidium iodide stained dead cells (red channel), and λexc=488 nm and λem=515-535 nm for the fluorescein diacetate stained live cells (green channel). 10 fields were collected from each well, and 4 wells were imaged/condition in the live-dead assay. For all other experiments, 4 fields/well were imaged unless otherwise stated.
Automated data analysis pipeline. Most experiments utilized only Mt-GFP; some utilized both Mt-GFP and Cyto-tdTomato. The Z-projected images were preprocessed using a custom Fiji macro. For preprocessing of Mt-GFP images: background was subtracted (rolling ball, radius=3), images were median filtered (radius=1) and somatic mitochondria were removed. For removal of the somatic mitochondria, they were first segmented and then a somatic mitochondrial mask overlaid on the image.
With `N#CC(C#N)=NNc1ccc(OC(F)(F)F)cc1` [FCCP, carbonyl cyanide-p-trifluoromethoxyphenylhydrazone], the “average area of axonal mitochondria” value is 0.39 μm^2, the “average area of dendritic mitochondria” value is given as 1.06 μm^2, the “average well axonal mitochondrial CA” value turned out to be 629±83 μm^2 and the “average well dendritic mitochondrial CA” value was determined as 123±44 μm^2. Besides, the “increase in axonal mitochondrial CA” value stood at 225 μm^2, the “median axonal mitochondrial circularity” value is reported as 0.94±0.004, the “median dendritic mitochondrial length” value turned out to be 2.77±0.07 μm and the “number of axonal mitochondria” value is reported as 51767. For the same compound, the “number of dendritic mitochondria” value was 3713; the “sum of dendritic and axonal mitochondrial CA” value amounted to 754 μm^2.

The data set is the same for the next values; noted with them: FCCP treatment vs DMSO.
`N#CC(C#N)=NNc1ccc(OC(F)(F)F)cc1` [FCCP, carbonyl cyanide-p-trifluoromethoxyphenylhydrazone]: the “reduction in the average dendritic mitochondrial CA per well” value was around 90%.

The data set is the same for the next values; noted with them: rescreen, 12.5 μM, 24 h, vs DMSO wells.
For the compound `Cc1ccc([C@@H]2O[C@H](CO)[C@@H](O)[C@H](O)[C@H]2O)cc1Cc1ccc(-c2ccc(F)cc2)s1` [CANAGLIFLOZIN], the “Dendritic Mt CA” value stood at 2.93 robust Z-scores and the “Neurite Area” value turned out to be 0.74 robust Z-scores.

`Clc1ccc(Cn2c(CN3CCCC3)nc3ccccc32)cc1` [CLEMIZOLE HYDROCHLORIDE]: the “Dendritic Mt CA” value was 2.54 robust Z-scores and the “Neurite Area” value is given as −0.66 robust Z-scores.

With `CN1CCN(C(c2ccccc2)c2ccccc2)CC1` [CYCLIZINE], the “Dendritic Mt CA” value is on record as 2.82 robust Z-scores and the “Neurite Area” value is reported as −0.03 robust Z-scores.

Regarding `COC(=O)C[C@H]1C(C)(C)[C@@H](OC(C)=O)[C@@H]2CC3C4CC(=O)O[C@@H](c5ccoc5)[C@]4(C)CCC3[C@@]1(C)C2=O` (stereo partly shown) [DIHYDROFISSINOLIDE], the “Dendritic Mt CA” value is recorded as 2.77 robust Z-scores and the “Neurite Area” value is given as 4.24 robust Z-scores.

On to `CCCCCCOc1ccccc1C(N)=O` [EXALAMIDE], for which the “Dendritic Mt CA” value came to 2.43 robust Z-scores and the “Neurite Area” value worked out at 3.42 robust Z-scores.

A further data set concerns primary neurons. In words: TMRM fluorescence assay of inner mitochondrial membrane potential (ΔΨm). To be noted: primary screen, 12.5 μM, 24 h.
Turning to `Cc1ccc([C@@H]2O[C@H](CO)[C@@H](O)[C@H](O)[C@H]2O)cc1Cc1ccc(-c2ccc(F)cc2)s1` [CANAGLIFLOZIN], the “TMRM Primary” value is on record as 4.55 Z-scores.

For the compound `Clc1ccc(Cn2c(CN3CCCC3)nc3ccccc32)cc1` [CLEMIZOLE HYDROCHLORIDE], the “TMRM Primary” value is recorded as 3.54 Z-scores.

Turning to `CN1CCN(C(c2ccccc2)c2ccccc2)CC1` [CYCLIZINE], the “TMRM Primary” value is listed as 3.41 Z-scores.

`COC(=O)C[C@H]1C(C)(C)[C@@H](OC(C)=O)[C@@H]2CC3C4CC(=O)O[C@@H](c5ccoc5)[C@]4(C)CCC3[C@@]1(C)C2=O` (stereo partly shown) [DIHYDROFISSINOLIDE]: the “TMRM Primary” value is on record as 3.94 Z-scores.

As to `CCCCCCOc1ccccc1C(N)=O` [EXALAMIDE], the “TMRM Primary” value was found to be 3.39 Z-scores.

The data set is the same for the next values; noted with them: rescreen, 24 h.
Turning to `Cc1ccc([C@@H]2O[C@H](CO)[C@@H](O)[C@H](O)[C@H]2O)cc1Cc1ccc(-c2ccc(F)cc2)s1` [CANAGLIFLOZIN], the “TMRM Rescreen” value came out at 6.36 Z-scores.

For the compound `Clc1ccc(Cn2c(CN3CCCC3)nc3ccccc32)cc1` [CLEMIZOLE HYDROCHLORIDE], the “TMRM Rescreen” value stood at 5.90 Z-scores.

As for `CN1CCN(C(c2ccccc2)c2ccccc2)CC1` [CYCLIZINE], the “TMRM Rescreen” value is listed as 5.91 Z-scores.

`COC(=O)C[C@H]1C(C)(C)[C@@H](OC(C)=O)[C@@H]2CC3C4CC(=O)O[C@@H](c5ccoc5)[C@]4(C)CCC3[C@@]1(C)C2=O` (stereo partly shown) [DIHYDROFISSINOLIDE]: the “TMRM Rescreen” value is 4.61 Z-scores.

As to `CCCCCCOc1ccccc1C(N)=O` [EXALAMIDE], the “TMRM Rescreen” value is listed as 4.57 Z-scores.

A further data set relates to primary neurons. The experiment in a line: CellTiter-Glo luminescence-based ATP assay. To be noted: ATP orthogonal screen, 24 h. It counts as cell-based, mouse. In short, it runs like this: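 Primary neurons treated from DIV13 for 24 h with compound or DMSO. After part of the medium was removed, CellTiter-Glo reagent was added; plates were shaken 10 min at 200 rpm, kept 2 min in the dark at room temperature, and luminescence read as total ATP.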
A general note: In ATP-based viability assays light output follows the ATP content of the culture.
In turn, `Cc1ccc([C@@H]2O[C@H](CO)[C@@H](O)[C@H](O)[C@H]2O)cc1Cc1ccc(-c2ccc(F)cc2)s1` [CANAGLIFLOZIN] yielded an ATP of 3.13 Z-scores.

`Clc1ccc(Cn2c(CN3CCCC3)nc3ccccc32)cc1` [CLEMIZOLE HYDROCHLORIDE]: the ATP was determined as 4.16 Z-scores.

In turn, `CN1CCN(C(c2ccccc2)c2ccccc2)CC1` [CYCLIZINE] had an ATP of 5.18 Z-scores.

In turn, `COC(=O)C[C@H]1C(C)(C)[C@@H](OC(C)=O)[C@@H]2CC3C4CC(=O)O[C@@H](c5ccoc5)[C@]4(C)CCC3[C@@]1(C)C2=O` (stereo partly shown) [DIHYDROFISSINOLIDE] yielded an ATP of 5.15 Z-scores.

`CCCCCCOc1ccccc1C(N)=O` [EXALAMIDE] returned an ATP of 6.10 Z-scores.

A further data set has as its system isolated forebrain mitochondria. The experiment in a line: ATP production of isolated mitochondria (luciferase-based kinetic assay). It is filed as biochemical, mouse. The following applies: 12 μM, starting 20 min after addition; DMSO 22498±358. Here is the method:
Isolation of mitochondria. For the ATP synthesis experiments of FIG. 6, forebrains from P0 pups were dissected as described above. 2×10^7 cells were harvested for high-purity mitochondrial isolation using the Qiagen QProteome kit. The mitochondrial pellet was resuspended in 500 μl mitochondria storage buffer (provided by kit) and kept on ice until further use.
ATP production of isolated forebrain mitochondria of P0 pups was measured by ATP Determination Kit (Molecular Probes). […] The reactions were initiated by the addition of 1 mM ADP (deprived of ATP contamination by adding 3 U/ml hexokinase to 10 mM of ADP in 50 mM Tris-HCl, 20 mM MgCl2 and 22 mM glucose, incubating the solution at 37° C. for 1 hr and heat inactivating the hexokinase at 100° C. for 3 min). Luminescence was recorded every 15-30 sec for 1 hr at 580±40 nm.
Regarding `N#CC(C#N)=NNc1ccc(OC(F)(F)F)cc1` [FCCP, carbonyl cyanide-p-trifluoromethoxyphenylhydrazone], the “ATP production kinetics, amplitude of single exponential fit” value came to 17958±216.

These data come from patent US20230003721A1, “MITOTHERAPEUTICS FOR THE TREATMENT OF BRAIN DISORDERS” (The University of Florida Research Foundation, Inc., priority 2019, published 2023).
